# Like-named read-outs stand apart in the source and are kept apart here.
# How the values were obtained:
# Assay type in all cases: cell-based
# [1] = system: Plasmodium falciparum clone CDC Indochina III (W-2); assay: In vitro inhibition of [3H]hypoxanthine uptake, P. falciparum W-2 clone; conditions: Plasmodium falciparum, read-out: IC50 (W-2)
# Protocol: (§1) The in vitro assays were conducted by using a modification of the semiautomated microdilution technique of Desjardins et al.^11 and Chulay et al.^12 Two strains of Plasmodium falciparum clones, from CDC Indochina III (W-2), CDC Sierra Leone I (D-6). […] These solutions were subsequently serially diluted 2-fold with a Biomek 1000® (Beckman, Fullerton, Calif.) over 11 different concentrations. The parasites were exposed to serial dilutions of each compound for 48 h and incubated at 37° C. with 5% O2, 5% CO2, and 90% N2 prior to the addition of [^3H]hypoxanthine. […] Uptake of [^3H]hypoxanthine was measured with a Packard Topcount scintillation counter. […] The values without parentheses indicate culture in blood serum which more closely resemble conditions in a living animal.
# (§2) The numbers associated with both W2 and D6 refer to IC50 values and the units are ng/ml.
# [2] = system: Plasmodium falciparum clone CDC Sierra Leone I (D-6); assay: In vitro inhibition of [3H]hypoxanthine uptake, P. falciparum D-6 clone; conditions: Plasmodium falciparum, read-out: IC50 (D-6)
# Protocol: as §1, §2
# [3] = system: Plasmodium falciparum clone Thai TM90C2B; assay: In vitro inhibition of [3H]hypoxanthine uptake, P. falciparum TM90C2B; conditions: Plasmodium falciparum, TM90C2B, values without parentheses: blood serum (footnote: blood plasma) replacing Albumax
# Protocol: The in vitro assays were conducted by using a modification of the semiautomated microdilution technique of Desjardins et al.^11 and Chulay et al.^12 Two strains of Plasmodium falciparum clones, from CDC Indochina III (W-2), CDC Sierra Leone I (D-6). […] They were derived by direct visualization and micromanipulation from patient isolates.^13 Test compounds were initially dissolved in DMSO and diluted 400-fold in RPMI 1640 culture medium supplemented with 25 mM Hepes, 32 mM HaHCO3, and 10% Albumax I® (GIBCO BRL, Grand Island, N.Y.). These solutions were subsequently serially diluted 2-fold with a Biomek 1000® (Beckman, Fullerton, Calif.) over 11 different concentrations. The parasites were exposed to serial dilutions of each compound for 48 h and incubated at 37° C. with 5% O2, 5% CO2, and 90% N2 prior to the addition of [^3H]hypoxanthine. After a further incubation of 18 h, parasite DNA was harvested from each microtiter well using Packard Filtermate 196 Harvester® (Meriden, Conn.) onto glass filters. Uptake of [^3H]hypoxanthine was measured with a Packard Topcount scintillation counter. […] This procedure was repeated with the test compounds initially dissolved in DMSO and diluted 400-fold in RPMI 1640 culture medium supplemented with 25 mM Hepes, 32 mM HaHCO3, and with blood serum replacing the 10% Albumax I® (see Table 1, figures without parentheses). The values without parentheses indicate culture in blood serum which more closely resemble conditions in a living animal.
# Four strains of Plasmodium falciparum clones, from CDC Indochina III (W-2), CDC Sierra Leone I (D-6), Thai WR75-TM9, and Thai TM90C2B were utilized in susceptibility testing and the IC50 results appear in Table 1.
# [4] = values in parentheses: culture medium with 10% Albumax I
# [5] = values without parentheses: blood serum (footnote: blood plasma) replacing Albumax
SMILES,"IC50 [1, 4] [µg/mL]","IC50 [2, 4] [µg/mL]",further results
CN1CCN(c2ccc3c(=O)n4c(nc3c2)C(=O)c2cc(F)ccc2-4)CC1 [Example 15],0.082,0.126,–
O=c1c2ccccc2nc2sc3ccccc3n12 [Example 2],15.6,12.5,–
O=C1c2ccccc2-n2c1nc1c(Br)cc(Br)c(F)c1c2=O [Example 33],0.0796,0.0671,–
CCOC(=O)c1ccc2c(c1)C(=O)c1nc3ccc(I)cc3c(=O)n1-2 [Example 26],0.609,0.589,–
Cc1ccc(S(=O)(=O)N/N=C2/c3ccccc3-n3c2nc2ccccc2c3=O)cc1 [Example 25],1.99,1.84,–
O=C1c2ccc(Cl)cc2-n2c1nc1ncccc1c2=O [Example 22],0.263,0.278,–
CCOC(=O)c1nc2ccccc2c(=O)n1-c1ccccc1 [Example 53],4.87,9.01,–
O=c1c2ccccc2nc2oc3ccccc3n12 [Example 3],> 50,> 50,–
CC(C)(C)OC(=O)N/N=C1/c2ccccc2-n2c1nc1ccccc1c2=O [Example 36],4.82,4.2,–
O=C1c2cc(F)ccc2-n2c1nc1c(F)cccc1c2=O [Example 19],0.00158,0.00257,"IC50 [1, 5]: 0.00814 µg/mL; IC50 [2, 5]: 0.0135 µg/mL; IC50 [3]: 0.00978 µg/mL"
CCCCCCCCc1ccc2c(c1)C(=O)c1nc3ccncc3c(=O)n1-2 [Example 41],0.00766,0.0123,–
O=C1c2cc(I)ccc2-n2c1nc1c(Br)cc(Br)cc1c2=O [Example 29],0.131,0.149,–
Cc1cccc2c(=O)n3c(nc12)C(=O)c1ccccc1-3 [Example 6],0.503,0.527,–
O=C1c2ccccc2-n2c1nc1nccnc1c2=O [Example 30],0.354,0.5,–
O=C1c2ccccc2-n2c1nc1ccccc1c2=O [Example 1],0.069,0.069,–
Cc1cccc2c(=O)n3c(nc12)C(=O)c1cc(F)ccc1-3 [Example 14],0.00576,0.0102,–

SMILES,"IC50 [1, 4] [µg/mL]","IC50 [2, 4] [µg/mL]",further results
Nc1ccc2nc3n(c(=O)c2c1)-c1ccc(F)cc1C3=O [Example 8],0.062,0.062,–
O=C1c2cc(I)ccc2-n2c1nc1ncccc1c2=O [Example 23],0.00167,0.00397,–
O=C1c2ccccc2-n2c1nc1c(Br)cc(Br)c(Cl)c1c2=O [Example 38],0.203,0.242,–
O=C1c2ccccc2-n2c1nc1ccc(Br)cc1c2=O [Example 7],0.513,0.577,–
CC1CN(c2cc3nc4n(c(=O)c3cc2F)-c2ccc(I)cc2C4=O)CCN1 (stereo not shown) [Example 35],0.134,0.103,–
O=C1c2c(Cl)cccc2-n2c1nc1ccccc1c2=O [Example 9],0.403,0.471,–
CC(C)(C)OC(=O)N1CCN(c2cc3nc4n(c(=O)c3cc2F)-c2ccc(I)cc2C4=O)CC1 [Example 31],0.134,0.161,–
CN1CCN(c2cc3c(cc2F)C(=O)c2nc4ccccc4c(=O)n2-3)CC1 [Example 18],0.513,0.813,–
NC(=O)N/N=C1/c2ccccc2-n2c1nc1ccccc1c2=O [Example 37],3.48,3.78,–
Cc1cc(C)c2nc3n(c(=O)c2c1)-c1ccc(F)cc1C3=O [Example 10],0.131,0.138,–
O=C1c2cc(I)ccc2-n2c1nc1c(O)nc(O)nc1c2=O [Example 32],2.59,3.85,–
Cc1ccc2nc3n(c(=O)c2c1)-c1ccccc1C3=O [Example 5],0.264,0.313,–
CN1CCN(c2cc3c(cc2F)C(=O)c2nc4cc(F)ccc4c(=O)n2-3)CC1 [Example 20],0.734,1.05,–
CN1CCN(c2ccc3c(c2)-n2c(nc4ccccc4c2=O)C3=O)CC1 [Example 16],1.01,2.16,–
O=C1/C(=c2\c3ccccc3n3c(=O)c4ccccc4nc23)Nc2ccccc21 [Example 51],–,–,IC50 [1]: 8.76 µg/mL; IC50 [2]: 8.69 µg/mL
CC1CN(c2cc3nc4n(c(=O)c3cc2F)-c2ccc(I)cc2C4=O)CCN1C(=O)OC(C)(C)C (stereo not shown) [Example 34],0.601,0.588,–

# Now from value to molecule, other results behind:
"IC50 [1, 4] [µg/mL]","IC50 [2, 4] [µg/mL]",SMILES,further results
6.9,7.97,O=c1c2ccccc2nc2n1-c1ccccc1C21OCCO1 [Example 80],–
0.187,0.247,CN(CCOC(=O)CCC(=O)O)c1ccc2c(=O)n3c(nc2c1)C(=O)c1cc(Cl)ccc1-3 [Example 61],–
0.0739,0.11,CC1(C)COC(c2ccc3c(c2)C(=O)c2nc4ccncc4c(=O)n2-3)OC1 [Example 81],–
0.0632,0.0764,O=C1c2cc(Cl)ccc2-n2c1nc1ccc(I)cc1c2=O [Example 42],–
7.46,7.86,CCCCCCCCc1ccc2c(c1)C(=O)c1nc3cc(N(C)CCO)ccc3c(=O)n1-2 [Example 72],–
0.573,0.534,COc1cccc2c(=O)n3c(nc12)/c(=C/c1ccccc1)c1cc(F)ccc13 [Example 75],–
0.165,0.22,O=C1c2cc(C3OCCCO3)ccc2-n2c1nc1ccncc1c2=O [Example 77],–
0.124,0.0628,Cc1ccc2c(c1)C(=O)c1nc3ccncc3c(=O)n1-2 [Example 82],–
0.0647,0.0733,O=C1c2ccccc2-n2c1nc1ccncc1c2=O [Example 52],–
0.0688,0.112,O=C1c2cc(/C=N/N3CCCCC3)ccc2-n2c1nc1ccncc1c2=O [Example 89],–
0.0112,0.0442,O=C1c2cc(Cl)ccc2-n2c1nc1ncncc1c2=O [Example 50],–
0.16,0.224,CCOC(=O)C(O)(C(=O)OCC)C1c2cc(F)ccc2-n2c1nc1c(OC)cccc1c2=O (stereo not shown) [Example 76],–
0.0688,0.07,CN(CCO)c1ccc2c(=O)n3c(nc2c1)C(=O)c1cc(OC(F)(F)F)ccc1-3 [Example 79],–
5.86,6.92,CCCCCCCCc1ccc2nc3n(c(=O)c2c1)-c1ccc(Cl)cc1C3=O [Example 44],–
0.016,0.0313,COCc1ccc2c(c1)C(=O)c1nc3ccncc3c(=O)n1-2 [Example 62],–
0.105,0.136,COCCOC(c1ccc2c(c1)C(=O)c1nc3ccncc3c(=O)n1-2)C(C)C (stereo not shown) [Example 85],–
0.12,0.143,CCCCCCC(C)c1ccc2c(c1)C(=O)c1nc3ccncc3c(=O)n1-2 (stereo not shown) [Example 71],–
4.42,4.44,O=c1c2ccccc2nc2/c(=C/C=C/c3ccccc3)c3ccccc3n12 [Example 67],–
0.177,0.49,O=C(N/N=C\c1ccc2c(c1)C(=O)c1nc3ccncc3c(=O)n1-2)c1ccncc1 [Example 88],–
0.449,0.517,CN1CCN(/N=C\c2ccc3c(c2)C(=O)c2nc4ccncc4c(=O)n2-3)CC1 [Example 66],–
0.0679,0.0781,CN(CC(=O)O)c1ccc2c(=O)n3c(nc2c1)C(=O)c1cc(Cl)ccc1-3 [Example 60],–
23,38.2,O=C(N/N=C1\c2ccccc2-n2c1nc1ccccc1c2=O)c1ccncc1 [Example 43],–
0.938,1.71,O=C1c2cc(C(O)(C(F)(F)F)C(F)(F)F)ccc2-n2c1nc1ccncc1c2=O [Example 84],–
0.0747,0.0739,CCN(CCN(C)C)c1ccc2c(=O)n3c(nc2c1)C(=O)c1cc(Cl)ccc1-3 [Example 49],–
0.117,0.216,Cc1ncc2c(=O)n3c(nc2n1)C(=O)c1ccccc1-3 [Example 56],–
0.154,0.259,CCOC(=O)C(O)(C(=O)OCC)C1c2ccccc2-n2c1nc1ccccc1c2=O (stereo not shown) [Example 65],–
0.124,0.0746,Cc1ncc2c(=O)n3c(nc2n1)C(=O)c1cc(I)ccc1-3 [Example 54],–

# Reference: patent US8012987B2, “Indolo[2,1-b] quinazole-6,12-dione antimalarial compounds and methods of treating malaria therewith” (The United States of America as represented by the …, priority 1998, dated 2011)
